For 3 compounds, zone of inhibition and Activity results are on record in ChEMBL document CHEMBL3046091, “Synthesis and antimicrobial activities of 2-azetidinyl-4-quinazolinone derivatives of diclofenac analogue” (2011).

What all share (type): functional
In assay [1] the test system is Bacillus subtilis. In words: Antibacterial activity against Bacillus subtilis ATCC 6633 at 50 ug/ml by cup-plate method. The following applies: read-out: IZ.
Assay [2] deals with Pseudomonas aeruginosa. Put plainly: Antibacterial activity against Pseudomonas aeruginosa ATCC 9027 at 50 ug/ml by cup-plate method. The following applies: read-out: IZ.
The subject of assay [3] is Escherichia coli. Put plainly: Antibacterial activity against Escherichia coli ATCC 25922 at 50 to 100 ug/ml by cup-plate method.
Assay [4] deals with Candida albicans. In words: Antifungal activity against Candida albicans ATCC 10231 at 100 ug/ml by cup-plate method. The following applies: read-out: IZ.
Assay [5] concerns Escherichia coli. In words: Antibacterial activity against Escherichia coli ATCC 25922 at 100 ug/ml by cup-plate method. The settings on record: read-out: IZ.
Assay [6] deals with Staphylococcus aureus. Put plainly: Antibacterial activity against Staphylococcus aureus ATCC 9144 at 50 ug/ml by cup-plate method. The following applies: read-out: IZ.
Assay [7] deals with Staphylococcus aureus. Put plainly: Antibacterial activity against Staphylococcus aureus ATCC 9144 at 100 ug/ml by cup-plate method. The settings on record: read-out: IZ.
In assay [8] the test system is Pseudomonas aeruginosa. In words: Antibacterial activity against Pseudomonas aeruginosa ATCC 9027 at 50 to 100 ug/ml by cup-plate method.
In assay [9] the test system is Staphylococcus aureus. Put plainly: Antibacterial activity against Staphylococcus aureus ATCC 9144 at 50 to 100 ug/ml by cup-plate method.
The test system of assay [10] is Candida albicans. In words: Antifungal activity against Candida albicans ATCC 10231 at 50 ug/ml by cup-plate method. The following applies: read-out: IZ.
In assay [11] the test system is Bacillus subtilis. Put plainly: Antibacterial activity against Bacillus subtilis ATCC 6633 at 100 ug/ml by cup-plate method. The settings on record: read-out: IZ.
The subject of assay [12] is Pseudomonas aeruginosa. In words: Antibacterial activity against Pseudomonas aeruginosa ATCC 9027 at 100 ug/ml by cup-plate method. The following applies: read-out: IZ.
Assay [13] has as its system Bacillus subtilis. In words: Antibacterial activity against Bacillus subtilis ATCC 6633 at 50 to 100 ug/ml by cup-plate method.
In assay [14] the test system is Escherichia coli. Put plainly: Antibacterial activity against Escherichia coli ATCC 25922 at 50 ug/ml by cup-plate method. The following applies: read-out: IZ.

`CN(C)c1ccc(C2C(Cl)C(=O)N2c2ccc(-n3c(Cc4ccccc4Nc4c(Cl)cccc4Cl)nc4ccc(Br)cc4c3=O)cc2)cc1` (configuration not stated): the zone of inhibition at 50 µg/mL in the assay on Bacillus subtilis [1], with Pseudomonas aeruginosa [2], in the assay on Staphylococcus aureus [6], in the assay with Candida albicans [10] and in the assay on Escherichia coli [14] was 0 mm each time. The Activity in the assay with Escherichia coli [3], in the assay on Pseudomonas aeruginosa [8], in the assay with Staphylococcus aureus [9] and in the assay with Bacillus subtilis [13] was 0% each time. Also, the zone of inhibition at 100 µg/mL was 1 mm in the assay on Candida albicans [4]; 0 mm in the assay on Escherichia coli [5]; 0 mm in the assay on Staphylococcus aureus [7]; 0 mm in the assay on Bacillus subtilis [11]; 0 mm with Pseudomonas aeruginosa [12].
For `O=c1c2cc(Br)ccc2nc(Cc2ccccc2Nc2c(Cl)cccc2Cl)n1-c1ccc(/N=C/c2ccc(O)cc2)cc1`, the zone of inhibition at 50 µg/mL in the assay on Bacillus subtilis [1] was 2 mm; in the assay with Pseudomonas aeruginosa [2] it was 2 mm; with Staphylococcus aureus [6] it was 3 mm; with Candida albicans [10], 0 mm; in the assay with Escherichia coli [14] it was 2 mm. The Activity in the assay with Escherichia coli [3] came to 31.5%; in the assay with Pseudomonas aeruginosa [8], 44.55%; with Staphylococcus aureus [9], 34.85%; in the assay on Bacillus subtilis [13] it was 30.5%. Also, the zone of inhibition at 100 µg/mL with Candida albicans [4] is 1 mm; in the assay with Escherichia coli [5], 4 mm; with Staphylococcus aureus [7], 4 mm; with Bacillus subtilis [11], 4 mm; in the assay with Pseudomonas aeruginosa [12], 5 mm.
Turning to `O=c1c2cc(Br)ccc2nc(Cc2ccccc2Nc2c(Cl)cccc2Cl)n1-c1ccc(/N=C/c2ccccc2Cl)cc1`, the zone of inhibition at 50 µg/mL in the assay with Bacillus subtilis [1] turned out to be 3 mm; in the assay with Pseudomonas aeruginosa [2], 3 mm; with Staphylococcus aureus [6], 3 mm; in the assay on Candida albicans [10], 1 mm; in the assay with Escherichia coli [14], 3 mm. Also, the Activity amounted to 37.56% in the assay on Escherichia coli [3], 44.44% in the assay on Pseudomonas aeruginosa [8], 50.98% in the assay on Staphylococcus aureus [9] and 42.68% in the assay with Bacillus subtilis [13]. The zone of inhibition at 100 µg/mL in the assay with Candida albicans [4] came out at 2 mm; with Escherichia coli [5] it was 5 mm; in the assay with Staphylococcus aureus [7], 6 mm; with Bacillus subtilis [11] it was 6 mm; with Pseudomonas aeruginosa [12], 5 mm.
